Assays:
Format in all cases: cell-based
S. pneumoniae ATCC 49619 = experiment: NCCLS broth microdilution MIC, S. pneumoniae ATCC 49619; conditions: organism F = S. pneumoniae ATCC 49619
Procedure: (§1) Compounds according to this invention were screened for their in vitro activities against selected species of bacteria and fungi. The minimal inhibition concentration (MIC) of these compounds was determined using the National Committee for Clinical Laboratory Standards (NCCLS) broth microdilution assay in microtiter plates, as set forth in: (1) the guidelines of the National Committee for Clinical Laboratory Standards (NCCLS) Document M7-A4 (NCCLS, 1997); (2) the guidelines of the National Committee for Clinical Laboratory Standards (NCCLS) Document M11-A4 (NCCLS, 1997); and (3) the guidelines and reference method of the National Committee for Clinical Laboratory Standards (NCCLS) Document M27-T (NCCLS, 1995). For antifungal essays, the method recommended in Murray, PR., 1995 Manual of Clinical Microbiology (ASM Press, Washington, D.C.), was employed.

E. faecium ATCC 51559 = experiment: MIC against drug-resistant bacteria, E. faecium ATCC 51559; conditions: organism A = E. faecium ATCC 51559, vancomycin resistant strain (VRE)
Procedure: as §1
(§2) Further, compounds (I) are effective against drug-resistant bacteria, as evidenced by the data in Table 2 below:
(§3) ATCC 27660 and ATCC 33591 are methycillin resistant strains of S. aureus (MRSA's). ATCC 51559 is a vancomycin resistant strain of E. faecium (VRE). ATCC 12228 is a methycillin resistant strain of S. epidermis (MRSE). ATCC 51422 is a penicillin resistant strain of S. pneumoniae.

S. aureus ATCC 27660 = experiment: MIC against drug-resistant bacteria, S. aureus ATCC 27660; conditions: organism B = S. aureus ATCC 27660, methycillin resistant strain (MRSA)
Procedure: as §1, §2, §3

C. albicans ATCC 38247 = experiment: NCCLS broth microdilution MIC (antifungal), C. albicans ATCC 38247; conditions: organism B = C. albicans ATCC 38247
Procedure: as §1

S. aureus ATCC 33591 = experiment: MIC against drug-resistant bacteria, S. aureus ATCC 33591; conditions: organism C = S. aureus ATCC 33591, methycillin resistant strain (MRSA)
Procedure: as §1, §2, §3

B. cereus ATCC 11778 = experiment: NCCLS broth microdilution MIC, B. cereus ATCC 11778; conditions: organism A = B. cereus ATCC 11778
Procedure: as §1

S. epidermis ATCC 12228 = experiment: MIC against drug-resistant bacteria, S. epidermis ATCC 12228; conditions: organism D = S. epidermis ATCC 12228, methycillin resistant strain (MRSE)
Procedure: as §1, §2, §3

S. aureus ATCC 13709 = experiment: NCCLS broth microdilution MIC, S. aureus ATCC 13709; conditions: organism E = S. aureus ATCC 13709
Procedure: as §1

E. coli ATCC 25922 = experiment: NCCLS broth microdilution MIC, E. coli ATCC 25922; conditions: organism C = E. coli ATCC 25922
Procedure: as §1

S. pneumoniae ATCC 51422 = experiment: MIC against drug-resistant bacteria, S. pneumoniae ATCC 51422; conditions: organism E = S. pneumoniae ATCC 51422, penicillin resistant strain
Procedure: as §1, §2, §3

E. faecalis ATCC 29212 = experiment: NCCLS broth microdilution MIC, E. faecalis ATCC 29212; conditions: organism D = E. faecalis ATCC 29212
Procedure: as §1

Row | SMILES | Minimum Inhibitory Concentration (MIC) (S. pneumoniae ATCC 49619) | Minimum Inhibitoty Concentration (MIC) (E. faecium ATCC 51559) | Minimum Inhibitoty Concentration (MIC) (S. aureus ATCC 27660) | Minimum Inhibitory Concentration (MIC) (C. albicans ATCC 38247) [µg/mL] | Minimum Inhibitoty Concentration (MIC) (S. aureus ATCC 33591) | Minimum Inhibitory Concentration (MIC) (B. cereus ATCC 11778) | Minimum Inhibitoty Concentration (MIC) (S. epidermis ATCC 12228) | Minimum Inhibitory Concentration (MIC) (S. aureus ATCC 13709) | Minimum Inhibitory Concentration (MIC) (E. coli ATCC 25922) | Minimum Inhibitoty Concentration (MIC) (S. pneumoniae ATCC 51422) | Minimum Inhibitory Concentration (MIC) (E. faecalis ATCC 29212)
1 | Cn1cc(NC(=O)c2ccc3nc(-c4cc(NC(=O)c5sccc5Cl)cn4C)[nH]c3c2)cc1C(=O)NCCN1CCOCC1 [Compound I-2] | +++ (MIC ≦4) | +++ (MIC ≦4) | +++ (MIC ≦4) | >32 | +++ (MIC ≦4) | +++ (MIC ≦4) | +++ (MIC ≦4) | +++ (MIC ≦4) | >32 µg/mL | +++ (MIC ≦4) | +++ (MIC ≦4)
2 | Cn1cc(NC(=O)c2sccc2Cl)cc1C(=O)Nc1cc(-c2nc3ccc(C(=O)NCCN4CCOCC4)cc3[nH]2)n(C)c1 [Compound I-3] | +++ (MIC ≦4) | +++ (MIC ≦4) | +++ (MIC ≦4) | >32 | – | +++ (MIC ≦4) | +++ (MIC ≦4) | +++ (MIC ≦4) | +++ (MIC ≦4) | +++ (MIC ≦4) | +++ (MIC ≦4)
3 | Cn1cc(NC(=O)c2ccc3nc(-c4sccc4Cl)[nH]c3c2)cc1-c1nc2ccc(C(=O)NCCN3CCOCC3)cc2[nH]1 [Compound I-1] | +++ (MIC ≦4) | – | +++ (MIC ≦4) | >32 | – | +++ (MIC ≦4) | – | +++ (MIC ≦4) | >32 µg/mL | – | +++ (MIC ≦4)
